# Key:
# Conditions in all cases: 72 h
# Calu-3 [1] = test: drug sensitivity score (DSS) for viability; higher = more toxic; extreme values may be limits of the assay
# HepG2 [2] = test: as above
# Vero E6 [3] = test: as above
# Caco-2 [4] = test: as above
# Calu-3 [5] = test: relative viability EC50 (midpoint between 100% and the lowest measured viability); higher = less toxic
# HepG2 [6] = test: as above
# Vero E6 [7] = test: as above
# Caco-2 [8] = test: as above
# Calu-3 [9] = test: cell viability relative to DMSO; higher = less toxic
# HepG2 [10] = test: as above
# Vero E6 [11] = test: as above
# Caco-2 [12] = test: as above
# U2OS [13] = test: drug sensitivity score (DSS) for viability; higher = more toxic; extreme values may be limits of the assay
# U2OS [14] = test: relative viability EC50 (midpoint between 100% and the lowest measured viability); higher = less toxic
# U2OS [15] = test: cell viability relative to DMSO; higher = less toxic
SMILES,drug sensitivity score (Calu-3 [1]),drug sensitivity score (HepG2 [2]),drug sensitivity score (Vero E6 [3]),drug sensitivity score (Caco-2 [4]),relative viability EC50 (Calu-3 [5]) [µM],relative viability EC50 (HepG2 [6]) [µM],relative viability EC50 (Vero E6 [7]) [µM],relative viability EC50 (Caco-2 [8]) [µM],cell viability (Calu-3 [9]; 1 nM) [%],cell viability (Calu-3 [9]; 10 nM) [%],cell viability (Calu-3 [9]; 100 nM) [%],cell viability (Calu-3 [9]; 1000 nM) [%],cell viability (Calu-3 [9]; 10000 nM) [%],cell viability (HepG2 [10]; 1 nM) [%],cell viability (HepG2 [10]; 10 nM) [%],cell viability (HepG2 [10]; 100 nM) [%],cell viability (HepG2 [10]; 1000 nM) [%],cell viability (HepG2 [10]; 10000 nM) [%],cell viability (Vero E6 [11]; 1 nM) [%],cell viability (Vero E6 [11]; 10 nM) [%],cell viability (Vero E6 [11]; 100 nM) [%],cell viability (Vero E6 [11]; 1000 nM) [%],cell viability (Vero E6 [11]; 10000 nM) [%],cell viability (Caco-2 [12]; 1 nM) [%],cell viability (Caco-2 [12]; 10 nM) [%],cell viability (Caco-2 [12]; 100 nM) [%],cell viability (Caco-2 [12]; 1000 nM) [%],cell viability (Caco-2 [12]; 10000 nM) [%],drug sensitivity score (U2OS [13]),relative viability EC50 (U2OS [14]) [µM],cell viability (U2OS [15]; 1 nM) [%],cell viability (U2OS [15]; 10 nM) [%],cell viability (U2OS [15]; 100 nM) [%],cell viability (U2OS [15]; 1000 nM) [%],cell viability (U2OS [15]; 10000 nM) [%]
CCNC(=O)[C@H]1O[C@@H](n2cnc3c(N)nc(NCCc4ccc(CCC(=O)O)cc4)nc32)[C@H](O)[C@@H]1O,0,0,0,0,> 10,> 10,> 10,> 10,95.7,99.2,99.5,113,98.9,96.2,102,116,97,96.7,104,109,98.8,97.9,95.8,99.1,101,92.1,96.4,97.3,,,,,,,
COc1ccc(-c2nc(C(=O)N3CCN(C)CC3)sc2-c2ccc(OC)cc2)cc1,0,0,0,0,> 10,> 10,> 10,> 10,97.5,101,99.7,109,106,98.7,95.7,104,107,98.5,107,104,102,103,95.6,99.2,94.6,108,102,102,,,,,,,
COc1ccc(S(=O)(=O)N2CCC[C@H]2C(=O)Nc2cc(C)cc(C)c2)cc1,,0,0,0,,> 10,> 10,> 10,,,,,,101,99,113,104,104,102,102,107,98.4,99.7,91,93.1,98.1,102,90,0,> 10,103,100,98.1,102,99.2
CSc1nc(NC2CCCC2)c([N+](=O)[O-])c(NC2CCCC2)n1,0,,0,0,> 10,,> 10,> 10,94.6,94.2,106,96.9,90.1,,,,,,110,98.3,107,96.4,97,99,97,102,93.7,95.7,0,> 10,102,103,98.9,106,97.2
Cc1ccc2c(c1)C1(CCN(CCc3nc(-c4ccccc4)oc3C)CC1)OC(=O)N2,0.4,1.6,1.8,0,> 10,> 10,,> 10,94.9,103,98.1,98,85.3,101,96,96.7,95.3,75.4,92.9,101,96.4,94.4,74.1,97,91.7,93.3,94.4,87.7,0,> 10,98.5,96.5,96.3,94,88.8
Cc1nc2c(OCc3ccccc3)cccn2c1CC#N,,0,0,0,,> 10,> 10,> 10,,,,,,106,107,95.9,106,97.5,92.4,93.3,95.8,95.1,103,97.9,91.1,107,100,93.6,0,> 10,98,102,100,95.3,98.2
Cn1c(N2CCCCS2(=O)=O)nc(C(=O)NCc2ccc(F)cc2)c(O)c1=O,0,2.4,0.1,0,> 10,3.68,> 10,> 10,98.4,89.8,95.6,102,97.4,103,96.9,105,106,46.9,103,96.6,100,102,85.4,85.9,88.6,88.9,92.7,81.1,3.4,,94.3,100,94.5,93.7,54.9
O=C(O)c1ccc(S(=O)(=O)N(Cc2ccc(OC(F)(F)F)cc2)c2ncc(C(F)(F)F)cc2Cl)cc1,,0,0.1,0,,> 10,> 10,> 10,,,,,,104,108,95.3,99.8,95.6,104,95.9,99.3,96.5,88.9,96.7,92.3,90.6,96.5,104,0,> 10,99.4,95.1,97.3,96.2,97.2
"OCc1ccc(CO)o1 [2,5-furandimethanol]",,0,0,0,,> 10,> 10,> 10,,,,,,98.6,97.3,108,106,100,97.1,94.3,88.2,94.4,107,89.2,100,84.4,95.1,103,0,> 10,95.4,104,96.6,98.5,99
CCOc1ccccc1N/N=C1/C(=O)N(c2nc(-c3ccccc3)cs2)N=C1C [BAM7],0,0.9,0,0,> 10,> 10,> 10,> 10,96.5,95.8,83.7,97.3,99.6,106,96.2,99.1,92.2,82.6,98.8,101,95.2,95.2,94.8,94.6,105,88.2,103,88.7,,,,,,,
CO/N=C(\C(=O)N[C@@H]1C(=O)N2C(C(=O)O)=C(COC(N)=O)CS[C@H]12)c1ccco1 [CEFUROXIME SODIUM],,0,0,0,,> 10,> 10,> 10,,,,,,97.7,109,95.4,97.8,103,101,95.6,97.6,95.1,110,106,90.6,98.6,107,99.4,0,> 10,97.3,95,96.8,98.7,103
O=C(NC(NC(=S)Nc1ccc(F)c([N+](=O)[O-])c1)C(Cl)(Cl)Cl)C(c1ccccc1)c1ccccc1 (centres undefined) [CGK-733],2.2,5.6,4.7,6.6,,2.91,2.96,2.26,97.8,103,96.6,104,52.8,95.8,94.2,104,96.7,7.9,98.8,100,101,97.8,20,99.2,106,93.9,90.3,10.7,4.6,2.72,94.4,103,96.4,95.9,27.4
COc1ccc(-n2c(C)c([N+](=O)[O-])c3ccc(O)cc32)cc1 [ID-8],2.6,0,0,0,> 10,> 10,> 10,> 10,99.7,97.6,91.1,79.9,88.4,99.3,102,97.4,106,93.6,96.3,103,94.2,94.5,92.1,98.3,111,91,92.2,94.5,,,,,,,
Cc1c[nH]c2ncnc(N3CCC(CN)(C(=O)Nc4cccc(OC(=O)N(C)C)c4)CC3)c12 [LX7101],0,0.1,0,0.9,> 10,> 10,> 10,> 10,82.4,99.4,110,125,114,99.8,99.2,101,102,86.4,93.2,100,92.4,102,112,88.3,97.8,98.9,96,82.4,2.2,,98,97.4,98.5,94,70.9
O=C(CN1CCN(C(=O)c2ccco2)CC1)Nc1cc(C(F)(F)F)ccc1Cl [ML348],0,0,0,0,> 10,> 10,> 10,> 10,118,95.7,102,104,95.5,96.9,98,93.1,106,104,98.4,98.8,94,98.3,94.6,96.3,89,97,96.1,91.1,,,,,,,

# From the supplement of paper PMC13380429
